The source of these data is US20090047246A1, “NOVEL INHIBITORS OF HEPATITIS C VIRUS REPLICATION” (InterMune, Inc., priority 2007, published 2009).

The target in the first assay is T1, HCV NS3 helicase (Hepatitis C virus genotype 1b, UniProt P26663).
T1 construct: full-length NS3 (1-631), purified at Array BioPharma
T1 sequence (P26663 1027-1657): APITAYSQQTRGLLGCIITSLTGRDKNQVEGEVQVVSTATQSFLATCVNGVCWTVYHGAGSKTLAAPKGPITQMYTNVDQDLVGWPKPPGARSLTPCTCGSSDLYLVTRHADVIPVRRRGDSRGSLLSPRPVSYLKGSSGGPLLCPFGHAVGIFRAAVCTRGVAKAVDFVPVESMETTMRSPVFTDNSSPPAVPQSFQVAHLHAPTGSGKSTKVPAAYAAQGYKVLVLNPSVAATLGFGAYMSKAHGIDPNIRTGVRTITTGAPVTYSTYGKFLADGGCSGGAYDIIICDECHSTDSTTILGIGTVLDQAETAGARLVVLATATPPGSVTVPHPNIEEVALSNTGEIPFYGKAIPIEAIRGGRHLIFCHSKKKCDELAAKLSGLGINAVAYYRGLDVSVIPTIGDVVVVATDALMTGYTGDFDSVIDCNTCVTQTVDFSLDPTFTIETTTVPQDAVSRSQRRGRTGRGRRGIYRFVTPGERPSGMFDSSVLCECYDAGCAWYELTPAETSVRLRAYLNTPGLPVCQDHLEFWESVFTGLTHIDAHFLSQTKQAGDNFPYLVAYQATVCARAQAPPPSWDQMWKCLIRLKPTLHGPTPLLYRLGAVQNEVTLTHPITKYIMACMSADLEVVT
Nature of the assay: HCV Helicase Prompt FRET Assay (Example A). Format: biochemical. To be noted: HCV NS3 helicase; tables do not say whether Example A or Example B assay; read-out: IC50 Activity. In a few lines: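 Initial unwinding rates, monitored as FAM fluorescence gain (ex 485, em 535) over ~30 min at room temperature, gave IC50 via 4- or 5-parameter logistic fits. Reactions: 50 nM quenched duplex, 250 nM capture strand, 300 μM ATP, 5–6 nM NS3 1-631 after 5 min compound preincubation, MOPS pH 7.0 buffer, 2% DMSO.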
The term IC50 denotes the point on the concentration scale where inhibition reaches its midpoint. In the case of `COC(=O)C(Cc1ccccc1)c1cn(-c2ccc([N+](=O)[O-])cc2C)c2ccc(Br)cc12` (stereo not drawn) [Example 397], the IC50 was over 50 µM.

With `CCOC(=O)Cc1c(-c2ccccc2)n(Cc2csc3ccc(Cl)cc23)c2ccccc12` [Example 412], the half-maximal inhibitory concentration (IC50) is over 50 µM.

Consider `CC(C)c1cccc(-c2cccc(Cc3oc4ccccc4c3CC(=O)O)c2)c1` [Example 311], for which the IC50 is under 10 µM.

With `CCOC(=O)Cc1cn(Cc2ccc(Oc3cccc(Cl)c3)cc2)c2cc(-c3cccc(OC(C)=O)c3)ccc12` [Example 601], the half-maximal inhibitory concentration (IC50) was over 50 µM.

As to `O=C(O)C(Cc1c[nH]c2ccc(Br)cc12)c1c[nH]c2ccc(Br)cc12` (stereo not drawn) [Example 411], the half-inhibitory concentration (IC50) lay in the range of 10 to 50 µM.

For `O=C(O)Cc1c(C(=O)c2cccc(Oc3ccccc3)c2)n(Cc2ccccc2)c2ccccc12` [Example 222], the IC50 is under 10 µM.

As for `O=C(O)Cc1cn(Cc2ccc(Oc3cc(Cl)cc(Cl)c3)cc2)c2ccccc12` [Example 508], the IC50 was under 10 µM.

As for `Cc1cc([N+](=O)[O-])ccc1-n1cc(/C=C/C(=O)O)c2cc(Br)cnc21` [Example 330], the 50% inhibitory concentration (IC50) was over 50 µM.

For `O=C(O)Cc1c(C(=O)c2cccc(-c3ccc(CO)cc3)c2)[nH]c2ccccc12` [Example 235], the IC50 is 10 to 50 µM.

Consider `CCS(=O)(=O)NC(=O)Cc1cn(Cc2cccc(OCc3ccccc3)c2)c2ccc(OCc3ccccc3)cc12` [Example 193], for which the IC50 is under 10 µM.

On to `O=C(O)Cc1cn(Cc2cccc(I)c2)c2ccc(OCc3ccccc3)cc12` [Example 123], for which the IC50 is under 10 µM.

With `O=C(O)Cc1c(Cc2ccc(-c3ccccc3)cc2)[nH]c2ccccc12` [Example 295], the concentration for half-maximal inhibition (IC50) is under 10 µM.

In the case of `COc1ccc2c(c1)c(CC(=O)O)cn2Cc1csc2ccc(Cl)cc12` [Example 106], the half-inhibitory concentration (IC50) lay in the range of 10 to 50 µM.

Take `C#Cc1ccc2c(CC(=O)O)cn(Cc3csc4ccc(Cl)cc34)c2c1` [Example 364]: the IC50 was under 10 µM.

Regarding `CN(c1cccc(Cn2cc(CC(=O)O)c3ccccc32)c1)c1cccc(C(F)(F)F)c1` [Example 530], the IC50 was under 10 µM.

As for `CN(c1cccc(Cn2cc(CC(=O)O)c3ccccc32)c1)c1c(F)cccc1F` [Example 536], the IC50 fell in the range of 10 to 50 µM.

As for `O=C(O)Cc1c(Cc2csc3ccc(Cl)cc23)n(CC2CC2)c2cc(OCc3ccccc3)ccc12` [Example 369], the IC50 was under 10 µM.

Consider `CC(C)c1ccc(Cn2c(C(=O)NCc3ccc(F)cc3)c(CC(=O)O)c3ccccc32)cc1` [Example 452], for which the IC50 was under 10 µM.

In the case of `O=C(Cc1cn(Cc2cccc(OCc3ccccc3)c2)c2ccc(Br)cc12)NCC1CC1` [Example 185], the IC50 lay in the range of 10 to 50 µM.

For the molecule `CN(c1cccc(Cn2cc(CC(=O)O)c3ccccc32)c1)c1cc(C(F)(F)F)ccc1C(F)(F)F` [Example 546], the half-inhibitory concentration (IC50) was under 10 µM.

With `CC(C)c1ccc(Cn2c(C(=O)Nc3ccc(S(C)(=O)=O)cc3)c(CC(=O)O)c3ccccc32)cc1` [Example 461], the IC50 is under 10 µM.

For `Cc1cc(NC(=O)CSc2ccccc2)ccc1-n1cc(CC(=O)O)c2ccccc21` [Example 159], the IC50 is 10 to 50 µM.

For the molecule `CC(C)c1ccc(Cn2c(C(=O)NCc3ccc(S(C)(=O)=O)cc3)c(CC(=O)O)c3cc(Br)ccc32)cc1` [Example 443], the IC50 is under 10 µM.

As for `O=C(O)Cc1c(Cc2ccc(-c3ccccc3Br)cc2)[nH]c2ccccc12` [Example 287], the IC50 was under 10 µM.

Consider `O=C(O)Cc1cn(Cc2ccc(Oc3cccc(Cl)c3)cc2)c2ccccc12` [Example 497], for which the concentration for half-maximal inhibition (IC50) is under 10 µM.

As for `COc1ccc2scc(Cn3cc(CC(=O)O)c4cc(Br)ccc43)c2c1` [Example 136], the IC50 was under 10 µM.

On to `O=C(O)Cc1c(C(=O)c2ccc(-c3ccccc3)cc2)n(Cc2csc3ccc(Cl)cc23)c2ccccc12` [Example 220], for which the IC50 was under 10 µM.

Regarding `O=C(O)Cc1cn(Cc2cccc(Oc3ccc(F)c(F)c3)c2)c2ccccc12` [Example 484], the IC50 was under 10 µM.

On to `CC(C)c1ccc(Cn2c(C(=O)NCc3ccc([N+](=O)[O-])cc3)c(CC(=O)O)c3ccccc32)cc1` [Example 447], for which the IC50 is under 10 µM.

Regarding `O=C(O)Cc1cn(Cc2csc3ccc(Cl)cc23)c2cc(-c3ccnc(NCCO)c3)ccc12` [Example 741], the IC50 was under 10 µM.

`N#Cc1ccnc(-n2cc(CP(=O)(O)O)c3cc(Br)ccc32)c1` [Example 316]: the IC50 lay in the range of 10 to 50 µM.

On to `Clc1ccc2scc(Cn3cc(Cc4nnn[nH]4)c4ccccc43)c2c1` [Example 202], for which the IC50 was under 10 µM.

With `O=C(O)Cc1cn(Cc2ccc(Oc3cccc(F)c3)cc2)c2ccccc12` [Example 518], the IC50 is under 10 µM.

On to `CC(C)c1ccc(Cn2c(C(=O)Nc3ccccc3)c(CC(=O)O)c3cc(Br)ccc32)cc1` [Example 456], for which the concentration for half-maximal inhibition (IC50) is under 10 µM.

Consider `Cc1ccc(CNC(=O)c2c(CC(=O)O)c3cc(Br)ccc3n2Cc2ccc(C(C)C)cc2)o1` [Example 444], for which the 50% inhibitory concentration (IC50) was 10 to 50 µM.

With `CC(C)c1cccc(-c2cccc(Cc3[nH]c4ccccc4c3CC(=O)O)c2)c1` [Example 302], the IC50 is under 10 µM.

In the case of `O=C(O)Cc1cn(Cc2noc(-c3ccccc3)n2)c2ccc(OCc3ccccc3)cc12` [Example 126], the IC50 is 10 to 50 µM.

In the case of `O=C(O)Cc1cn(Cc2ccc(-c3ccccc3)cc2)c2ccc(OCc3ccccc3)cc12` [Example 122], the IC50 was under 10 µM.

For `O=C(O)Cc1cn(Cc2csc3ccc(Br)cc23)c2ccc(Br)cc12` [Example 135], the concentration for half-maximal inhibition (IC50) was under 10 µM.

As to `COc1ccc(Oc2cccc(Cn3cc(CC(=O)O)c4ccccc43)c2)cc1OC` [Example 491], the IC50 is 10 to 50 µM.

In the case of `Cc1cc(NC(=O)Cc2cccs2)ccc1-n1cc(CC(=O)O)c2ccccc21` [Example 157], the IC50 fell in the range of 10 to 50 µM.

In the case of `Cc1cc([N+](=O)[O-])ccc1-n1cc(CC(=O)O)c2cc3c(cc21)OCO3` [Example 344], the 50% inhibitory concentration (IC50) was over 50 µM.

In the case of `Cc1cccc(CN(C)c2ccc(-n3cc(CC(=O)O)c4ccccc43)cc2)c1` [Example 176], the IC50 was under 10 µM.

For `CN(c1cccc(Cl)c1)c1cccc(Cn2cc(CC(=O)O)c3ccccc32)c1` [Example 524], the IC50 was under 10 µM.

As to `O=C(O)Cc1c(C(=O)c2cccc(-c3cc(Cl)cc(Cl)c3)c2)[nH]c2ccccc12` [Example 231], the IC50 was under 10 µM.

Turning to `O=C(Cn1cc(Cc2nnn[nH]2)c2ccccc21)N1CCC(Cc2ccccc2)CC1` [Example 206], the concentration for half-maximal inhibition (IC50) lay within 10 to 50 µM.

For the molecule `CCOC(=O)C(Cc1ccccc1)c1c(-c2ccccc2)n(Cc2csc3ccc(Cl)cc23)c2ccccc12` (stereo not drawn) [Example 413], the IC50 is over 50 µM.

Consider `O=C(O)Cc1cn(Cc2ccc(Cl)c(Cl)c2)c2ccc(Br)cc12` [Example 110], for which the IC50 was 10 to 50 µM.

On to `O=C(O)Cc1cn(-c2ccc3c(c2)CCC3=O)c2ccccc12` [Example 148], for which the concentration for half-maximal inhibition (IC50) lay within 10 to 50 µM.

With `O=C(O)Cc1c(C(=O)c2ccc(-c3cccc(Cl)c3)cc2)[nH]c2ccccc12` [Example 253], the IC50 lay within 10 to 50 µM.

The assay is the same for the next values; noted with them: Table 21, compounds made using Scheme 28; read-out: IC50 Activity.
For `CN(c1ccc(Cn2cc(CC(=O)O)c3ccccc32)cc1)c1ccccc1Cl` [Example 559], the IC50 was under 10 µM.

Still in this assay, the particulars now being: Table 23, compounds made using Scheme 30; read-out: IC50 Activity.
Consider `O=C(O)Cc1cn(Cc2cccc(Oc3c(F)cccc3F)c2)c2ccccc12` [Example 594], for which the IC50 is under 10 µM.

The same assay, now with this note: Table 25, compounds made using Scheme 32; read-out: IC50 Activity.
For `CCOC(=O)Cc1cn(Cc2ccc(Oc3cccc(OC)c3)cc2)c2cc(-c3cc(N)cc(N)c3)ccc12` [Example 610], the IC50 fell in the range of 10 to 50 µM.

Regarding `CCOC(=O)Cc1cn(Cc2ccc(Oc3cccc(OCC)c3)cc2)c2cc(-c3cc(N)cc(N)c3)ccc12` [Example 609], the half-maximal inhibitory concentration (IC50) was 10 to 50 µM.

The same assay, now with this note: Table 26, compounds made using Scheme 33; read-out: IC50 Activity.
In the case of `CCC(=O)Oc1cn(Cc2csc3ccc(Cl)cc23)c2cc(-c3ccccc3)ccc12` [Example 616], the IC50 was over 50 µM.

Staying with this assay, now noted: Table 31, compounds made using Schemes 38-45; read-out: IC50 Activity.
Consider `CNc1nc(-c2ccc3c(CC(=O)O)cn(Cc4csc5ccc(Cl)cc45)c3c2)nc2[nH]cnc12` [Example 640], for which the IC50 is under 10 µM.

Consider `CC(C)Nc1cc(N)cc(-c2ccc3c(CC(=O)O)cn(Cc4csc5ccc(Cl)cc45)c3c2)c1` [Example 650], for which the IC50 was under 10 µM.

The same assay, now with this note: Table 33, compounds made using Scheme 50; read-out: IC50 Activity.
In the case of `Nc1ccnc(-c2ccc3c(CC(=O)O)cn(Cc4csc5ccc(Cl)cc45)c3c2)n1` [Example 667], the IC50 lay within 10 to 50 µM.

Staying with this assay, now noted: Table 34, compounds made using Schemes 51-52; read-out: IC50 Activity.
Consider `Nc1cc(-c2ccc3c(CC(=O)NOCc4ccccc4)cn(Cc4csc5ccc(Cl)cc45)c3c2)cc([N+](=O)[O-])c1` [Example 689], for which the IC50 was over 50 µM.

For `CC(C)(C)ONC(=O)Cc1cn(Cc2csc3ccc(Cl)cc23)c2cc(-c3cc(N)cc(N)c3)ccc12` [Example 683], the half-inhibitory concentration (IC50) fell in the range of 10 to 50 µM.

Consider `Nc1cc(N)cc(-c2ccc3c(CC(=O)O)cn(Cc4ccccc4)c3c2)c1` [Example 676], for which the 50% inhibitory concentration (IC50) lay within 10 to 50 µM.

Staying with this assay, now noted: Table 35, compounds made using Scheme 53; read-out: IC50 Activity.
As to `Cc1nn(-c2ccccc2)nc1Cn1cc(CC(=O)O)c2ccc(-c3cc(N)cc(N)c3)cc21` [Example 706], the IC50 lay within 10 to 50 µM.

Staying with this assay, now noted: Table 36, compounds made using Scheme 54; read-out: IC50 Activity.
For the molecule `Nc1cc(N)cc(-c2ccc3c(CC(=O)O)cn(Cc4c(-c5cccc(Cl)c5)sc5ccccc45)c3c2)c1` [Example 715], the IC50 is under 10 µM.

As for `Cc1sc2ccc(Cl)cc2c1Cn1cc(CC(=O)O)c2ccc(-c3cc(N)cc(N)c3)cc21` [Example 778], the IC50 was under 10 µM.

Still in this assay, the particulars now being: Table 37, compounds made using Scheme 55; read-out: IC50 Activity.
Take `O=C(O)Cc1cn(Cc2csc3ccc(Cl)cc23)c2cc(-c3ccc(Cl)cc3)ccc12` [Example 753]: the half-maximal inhibitory concentration (IC50) was over 50 µM.

Staying with this assay, now noted: numeric bound instead of class symbol; read-out: IC50 Activity.
Take `COC(=O)C(c1ccc([N+](=O)[O-])cc1C)C1CN(c2ccc([N+](=O)[O-])cc2C)c2ccc(Br)cc21` (stereo not drawn) [Example 403]: the IC50 is over 20 µM.
